{"source": "ChEMBL document CHEMBL5463729", "about": "“Data for DCP probe BAY 1753011” (2023)", "key": {"[1]": {"molecular_target": "Insulin-like growth factor 1 receptor (Homo sapiens) (UniProt P08069)", "sequence (P08069 31-736 limits assumed)": "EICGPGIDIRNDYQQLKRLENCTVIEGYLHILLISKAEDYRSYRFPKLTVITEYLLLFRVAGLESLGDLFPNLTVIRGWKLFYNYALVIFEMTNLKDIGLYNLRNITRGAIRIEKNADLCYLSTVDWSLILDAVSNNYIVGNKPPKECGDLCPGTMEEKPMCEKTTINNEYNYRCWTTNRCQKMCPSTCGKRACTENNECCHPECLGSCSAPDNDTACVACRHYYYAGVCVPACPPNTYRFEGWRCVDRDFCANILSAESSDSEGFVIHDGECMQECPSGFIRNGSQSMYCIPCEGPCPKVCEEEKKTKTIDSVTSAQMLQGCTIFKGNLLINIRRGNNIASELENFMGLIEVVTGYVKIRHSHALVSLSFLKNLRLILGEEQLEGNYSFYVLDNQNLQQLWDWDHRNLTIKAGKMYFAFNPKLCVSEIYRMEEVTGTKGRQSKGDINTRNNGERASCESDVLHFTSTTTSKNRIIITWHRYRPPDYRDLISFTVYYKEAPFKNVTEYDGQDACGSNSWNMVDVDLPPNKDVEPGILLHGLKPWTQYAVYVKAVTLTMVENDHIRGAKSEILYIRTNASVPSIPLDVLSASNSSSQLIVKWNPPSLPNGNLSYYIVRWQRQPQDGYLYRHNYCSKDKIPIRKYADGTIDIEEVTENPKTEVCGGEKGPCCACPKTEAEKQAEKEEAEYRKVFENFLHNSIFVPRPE", "sequence (P08069 741-1367 limits assumed)": "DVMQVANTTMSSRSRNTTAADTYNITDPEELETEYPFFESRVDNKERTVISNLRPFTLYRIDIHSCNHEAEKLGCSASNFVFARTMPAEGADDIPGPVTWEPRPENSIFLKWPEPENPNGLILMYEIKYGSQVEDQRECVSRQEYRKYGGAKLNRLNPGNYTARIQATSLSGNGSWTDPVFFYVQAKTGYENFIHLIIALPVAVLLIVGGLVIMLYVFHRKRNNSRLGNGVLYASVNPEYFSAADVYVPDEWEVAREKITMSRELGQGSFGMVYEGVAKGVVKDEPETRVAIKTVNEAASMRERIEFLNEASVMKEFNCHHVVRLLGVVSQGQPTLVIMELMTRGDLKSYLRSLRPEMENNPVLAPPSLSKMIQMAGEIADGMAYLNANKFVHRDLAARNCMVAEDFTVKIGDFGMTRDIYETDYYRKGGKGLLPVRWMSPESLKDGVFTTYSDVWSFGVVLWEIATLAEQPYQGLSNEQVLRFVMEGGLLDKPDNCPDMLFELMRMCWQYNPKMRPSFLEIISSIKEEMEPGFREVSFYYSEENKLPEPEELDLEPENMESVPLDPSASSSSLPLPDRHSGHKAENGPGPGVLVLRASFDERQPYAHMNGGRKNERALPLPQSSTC", "assay": "Inhibition of IGF-1R(h), activated at 10.0 µM in the Eurofins Kinase panel", "conditions": "Compound concentration 10.0 uM"}, "[2]": {"molecular_target": "Delta-type opioid receptor (Homo sapiens) (UniProt P41143)", "conditions": "Compound concentration 10.0 uM"}, "[3]": {"molecular_target": "CDK6/cyclin D3 (Homo sapiens) (UniProt P30281+Q00534)", "assay": "Inhibition of CDK6/cyclinD3(h) at 10.0 µM in the Eurofins Kinase panel", "format": "protein-complex assay", "conditions": "Compound concentration 10.0 uM"}, "[4]": {"molecular_target": "Tau-tubulin kinase 1 (Homo sapiens) (UniProt Q5TCY1)", "assay": "Inhibition of TTBK1(h) at 10.0 µM in the Eurofins Kinase panel", "conditions": "Compound concentration 10.0 uM"}, "[5]": {"molecular_target": "T1, Vasopressin V1b receptor (Homo sapiens) (UniProt P47901)", "T1 sequence (whole entry)": "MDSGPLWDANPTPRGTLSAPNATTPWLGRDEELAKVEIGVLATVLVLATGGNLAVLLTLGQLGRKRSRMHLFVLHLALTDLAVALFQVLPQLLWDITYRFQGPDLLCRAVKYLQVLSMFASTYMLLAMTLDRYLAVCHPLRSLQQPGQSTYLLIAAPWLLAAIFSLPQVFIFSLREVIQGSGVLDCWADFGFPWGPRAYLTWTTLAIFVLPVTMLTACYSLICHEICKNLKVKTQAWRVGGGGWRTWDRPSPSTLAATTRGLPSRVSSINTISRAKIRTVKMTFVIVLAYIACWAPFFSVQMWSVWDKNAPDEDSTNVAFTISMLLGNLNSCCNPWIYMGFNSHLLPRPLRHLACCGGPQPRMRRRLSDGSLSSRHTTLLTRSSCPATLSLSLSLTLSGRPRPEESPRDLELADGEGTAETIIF", "assay": "Inhibition of Vasopressin V1B at 10 µM in the Eurofins-Panlabs radioligand binding assay (Eurofins_assay_287560)", "parameters": "ligand concentration 1 nM"}, "[6]": {"molecular_target": "Serine/threonine-protein kinase Nek6 (Homo sapiens) (UniProt Q9HC98)", "sequence (Q9HC98 whole entry)": "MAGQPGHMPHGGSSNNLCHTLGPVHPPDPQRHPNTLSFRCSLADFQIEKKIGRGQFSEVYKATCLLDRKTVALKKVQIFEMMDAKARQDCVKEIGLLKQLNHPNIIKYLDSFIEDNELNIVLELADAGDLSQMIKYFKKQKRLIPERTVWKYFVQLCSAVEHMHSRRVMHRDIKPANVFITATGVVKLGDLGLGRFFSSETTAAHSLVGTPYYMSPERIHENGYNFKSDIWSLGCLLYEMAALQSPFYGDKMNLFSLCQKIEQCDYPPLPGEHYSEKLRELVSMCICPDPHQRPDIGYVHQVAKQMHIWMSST", "assay": "Inhibition of NEK6(h) at 10.0 µM in the Eurofins Kinase panel", "conditions": "Compound concentration 10.0 uM"}, "[7]": {"molecular_target": "T2, Muscarinic acetylcholine receptor M2 (Homo sapiens) (UniProt P08172)", "T2 sequence (whole entry)": "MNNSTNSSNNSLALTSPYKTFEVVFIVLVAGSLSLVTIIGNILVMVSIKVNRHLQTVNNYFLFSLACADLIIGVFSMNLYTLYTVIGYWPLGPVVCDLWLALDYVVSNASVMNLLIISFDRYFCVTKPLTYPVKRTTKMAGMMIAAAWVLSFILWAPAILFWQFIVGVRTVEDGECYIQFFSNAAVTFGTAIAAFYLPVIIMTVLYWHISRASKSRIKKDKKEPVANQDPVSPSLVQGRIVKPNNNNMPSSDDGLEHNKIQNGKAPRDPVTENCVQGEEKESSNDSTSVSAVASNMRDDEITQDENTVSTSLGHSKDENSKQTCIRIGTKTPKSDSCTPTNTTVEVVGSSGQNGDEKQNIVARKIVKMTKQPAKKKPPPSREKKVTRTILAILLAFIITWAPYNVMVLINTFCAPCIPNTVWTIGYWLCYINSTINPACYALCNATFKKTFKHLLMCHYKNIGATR", "conditions": "Compound concentration 10.0 uM"}, "[8]": {"molecular_target": "MAP/microtubule affinity-regulating kinase 4 (Homo sapiens) (UniProt Q96L34)", "assay": "Inhibition of MARK4(h) at 10.0 µM in the Eurofins Kinase panel", "conditions": "Compound concentration 10.0 uM"}, "[9]": {"molecular_target": "PAS domain-containing serine/threonine-protein kinase (Homo sapiens) (UniProt Q96RG2)", "assay": "Inhibition of PASK(h) at 10.0 µM in the Eurofins Kinase panel", "conditions": "Compound concentration 10.0 uM"}, "[10]": {"molecular_target": "cAMP-dependent protein kinase catalytic subunit PRKX (Homo sapiens) (UniProt P51817)", "sequence (P51817 whole entry)": "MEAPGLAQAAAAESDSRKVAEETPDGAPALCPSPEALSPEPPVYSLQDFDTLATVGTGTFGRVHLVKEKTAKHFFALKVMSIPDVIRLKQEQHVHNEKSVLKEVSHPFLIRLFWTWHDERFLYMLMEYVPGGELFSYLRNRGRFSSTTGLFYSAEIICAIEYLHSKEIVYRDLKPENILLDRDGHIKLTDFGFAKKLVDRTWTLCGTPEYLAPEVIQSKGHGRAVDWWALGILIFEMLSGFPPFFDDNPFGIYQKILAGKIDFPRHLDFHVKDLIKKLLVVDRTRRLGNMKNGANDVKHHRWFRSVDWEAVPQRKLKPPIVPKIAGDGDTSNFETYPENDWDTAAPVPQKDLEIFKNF", "assay": "Inhibition of PrKX(h) at 10.0 µM in the Eurofins Kinase panel", "conditions": "Compound concentration 10.0 uM"}, "[11]": {"molecular_target": "Bone morphogenetic protein receptor type-1B (Homo sapiens) (UniProt O00238)", "assay": "Inhibition of ALK6(h) at 10.0 µM in the Eurofins Kinase panel", "conditions": "Compound concentration 10.0 uM"}, "[12]": {"molecular_target": "Mitogen-activated protein kinase 10 (Homo sapiens) (UniProt P53779)", "sequence (P53779 whole entry)": "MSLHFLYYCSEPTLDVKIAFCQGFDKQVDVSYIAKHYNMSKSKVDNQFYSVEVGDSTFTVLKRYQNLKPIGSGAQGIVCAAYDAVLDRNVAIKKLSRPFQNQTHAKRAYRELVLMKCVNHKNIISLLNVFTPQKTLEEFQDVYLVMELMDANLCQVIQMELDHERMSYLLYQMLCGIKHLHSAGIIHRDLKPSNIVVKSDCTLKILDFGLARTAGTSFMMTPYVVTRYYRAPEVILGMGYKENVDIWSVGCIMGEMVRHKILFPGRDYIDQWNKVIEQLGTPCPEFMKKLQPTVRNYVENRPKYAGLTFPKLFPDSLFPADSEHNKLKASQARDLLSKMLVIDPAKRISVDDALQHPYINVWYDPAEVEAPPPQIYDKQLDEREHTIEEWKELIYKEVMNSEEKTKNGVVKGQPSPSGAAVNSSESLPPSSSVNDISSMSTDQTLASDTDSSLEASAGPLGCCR", "assay": "Inhibition of JNK3(h) at 10.0 µM in the Eurofins Kinase panel", "conditions": "Compound concentration 10.0 uM"}, "[13]": {"molecular_target": "Serine/threonine-protein kinase ULK3 (Homo sapiens) (UniProt Q6PHR2)", "sequence (Q6PHR2 whole entry)": "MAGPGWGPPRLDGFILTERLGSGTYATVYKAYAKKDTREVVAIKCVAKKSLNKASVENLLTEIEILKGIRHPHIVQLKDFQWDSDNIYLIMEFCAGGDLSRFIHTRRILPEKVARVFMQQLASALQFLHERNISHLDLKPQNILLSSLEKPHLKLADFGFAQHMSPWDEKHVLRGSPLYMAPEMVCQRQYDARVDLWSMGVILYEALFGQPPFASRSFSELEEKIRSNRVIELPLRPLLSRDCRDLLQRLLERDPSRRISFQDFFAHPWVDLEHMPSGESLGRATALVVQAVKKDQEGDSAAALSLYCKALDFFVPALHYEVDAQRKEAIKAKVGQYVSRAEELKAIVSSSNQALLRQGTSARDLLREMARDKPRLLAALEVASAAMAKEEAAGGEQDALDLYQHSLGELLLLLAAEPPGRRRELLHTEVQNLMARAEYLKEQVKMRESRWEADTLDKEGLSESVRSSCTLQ", "assay": "Inhibition of ULK3(h) at 10.0 µM in the Eurofins Kinase panel", "conditions": "Compound concentration 10.0 uM"}, "[14]": {"molecular_target": "T3, Alpha-2A adrenergic receptor (Homo sapiens) (UniProt P08913)", "T3 sequence (whole entry)": "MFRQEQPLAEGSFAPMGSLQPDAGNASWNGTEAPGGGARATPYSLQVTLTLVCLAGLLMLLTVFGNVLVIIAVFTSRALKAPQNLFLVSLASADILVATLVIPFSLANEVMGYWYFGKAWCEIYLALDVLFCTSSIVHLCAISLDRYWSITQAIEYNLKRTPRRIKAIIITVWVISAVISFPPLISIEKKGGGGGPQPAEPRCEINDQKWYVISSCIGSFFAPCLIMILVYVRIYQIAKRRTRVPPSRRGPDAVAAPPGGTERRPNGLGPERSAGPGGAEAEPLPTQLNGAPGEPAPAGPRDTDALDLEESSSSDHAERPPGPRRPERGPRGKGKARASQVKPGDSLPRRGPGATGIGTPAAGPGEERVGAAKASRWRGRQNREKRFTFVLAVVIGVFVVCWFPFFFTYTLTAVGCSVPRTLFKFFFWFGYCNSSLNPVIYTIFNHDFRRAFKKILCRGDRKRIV", "conditions": "Compound concentration 10.0 uM"}, "[15]": {"molecular_target": "Ephrin type-A receptor 5 (Homo sapiens) (UniProt P54756)", "sequence (P54756 whole entry)": "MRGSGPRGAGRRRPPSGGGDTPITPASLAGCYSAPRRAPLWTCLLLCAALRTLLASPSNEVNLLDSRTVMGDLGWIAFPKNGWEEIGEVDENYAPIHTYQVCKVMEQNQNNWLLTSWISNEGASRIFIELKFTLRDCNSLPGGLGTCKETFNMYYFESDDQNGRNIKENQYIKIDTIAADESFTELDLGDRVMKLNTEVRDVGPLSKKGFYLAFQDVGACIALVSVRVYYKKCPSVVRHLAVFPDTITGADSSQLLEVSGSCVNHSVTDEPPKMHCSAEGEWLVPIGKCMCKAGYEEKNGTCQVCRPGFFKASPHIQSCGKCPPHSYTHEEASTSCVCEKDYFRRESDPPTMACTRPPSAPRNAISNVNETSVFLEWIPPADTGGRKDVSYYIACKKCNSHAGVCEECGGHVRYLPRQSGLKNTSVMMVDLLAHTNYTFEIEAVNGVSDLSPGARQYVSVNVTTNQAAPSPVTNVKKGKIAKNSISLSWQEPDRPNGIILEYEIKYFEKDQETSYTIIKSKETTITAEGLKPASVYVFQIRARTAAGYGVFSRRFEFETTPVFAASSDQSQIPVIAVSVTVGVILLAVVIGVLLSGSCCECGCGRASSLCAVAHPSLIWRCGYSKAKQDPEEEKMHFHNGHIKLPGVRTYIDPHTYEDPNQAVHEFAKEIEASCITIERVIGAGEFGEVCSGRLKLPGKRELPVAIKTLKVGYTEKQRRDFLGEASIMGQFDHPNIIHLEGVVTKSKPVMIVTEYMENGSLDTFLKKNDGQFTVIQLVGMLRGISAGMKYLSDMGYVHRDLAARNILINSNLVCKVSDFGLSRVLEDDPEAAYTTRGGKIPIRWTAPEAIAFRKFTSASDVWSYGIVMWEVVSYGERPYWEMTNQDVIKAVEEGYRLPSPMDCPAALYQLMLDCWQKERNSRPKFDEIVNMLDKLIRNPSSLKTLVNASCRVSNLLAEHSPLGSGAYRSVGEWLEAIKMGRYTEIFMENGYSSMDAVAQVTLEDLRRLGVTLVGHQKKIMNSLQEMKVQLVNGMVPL", "assay": "Inhibition of EphA5(h) at 10.0 µM in the Eurofins Kinase panel", "conditions": "Compound concentration 10.0 uM"}, "[16]": {"molecular_target": "Calcium/calmodulin-dependent protein kinase type 1G (Homo sapiens) (UniProt Q96NX5)", "assay": "Inhibition of CaMKIgamma(h) at 10.0 µM in the Eurofins Kinase panel", "conditions": "Compound concentration 10.0 uM"}, "[17]": {"molecular_target": "Dual specificity mitogen-activated protein kinase kinase 2 (Homo sapiens) (UniProt P36507)", "sequence (P36507 whole entry)": "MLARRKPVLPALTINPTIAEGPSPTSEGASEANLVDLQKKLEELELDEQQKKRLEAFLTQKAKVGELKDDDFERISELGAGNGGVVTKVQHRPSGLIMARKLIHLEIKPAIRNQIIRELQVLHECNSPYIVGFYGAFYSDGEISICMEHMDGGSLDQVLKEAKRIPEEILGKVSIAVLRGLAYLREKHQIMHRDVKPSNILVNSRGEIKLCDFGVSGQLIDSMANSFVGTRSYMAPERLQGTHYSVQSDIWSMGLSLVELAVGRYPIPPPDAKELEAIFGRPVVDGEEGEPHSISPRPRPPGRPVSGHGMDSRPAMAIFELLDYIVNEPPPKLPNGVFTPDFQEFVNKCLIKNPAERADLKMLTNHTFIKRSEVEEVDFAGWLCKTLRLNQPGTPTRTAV", "assay": "Inhibition of MEK2(h) at 10.0 µM in the Eurofins Kinase panel", "conditions": "Compound concentration 10.0 uM"}, "[18]": {"molecular_target": "Serine/threonine-protein kinase SBK1 (Homo sapiens) (UniProt Q52WX2)", "assay": "Inhibition of SBK1(h) at 10.0 µM in the Eurofins Kinase panel", "conditions": "Compound concentration 10.0 uM"}, "[19]": {"molecular_target": "Myosin light chain kinase 2, skeletal/cardiac muscle (Homo sapiens) (UniProt Q9H1R3)", "sequence (Q9H1R3 whole entry)": "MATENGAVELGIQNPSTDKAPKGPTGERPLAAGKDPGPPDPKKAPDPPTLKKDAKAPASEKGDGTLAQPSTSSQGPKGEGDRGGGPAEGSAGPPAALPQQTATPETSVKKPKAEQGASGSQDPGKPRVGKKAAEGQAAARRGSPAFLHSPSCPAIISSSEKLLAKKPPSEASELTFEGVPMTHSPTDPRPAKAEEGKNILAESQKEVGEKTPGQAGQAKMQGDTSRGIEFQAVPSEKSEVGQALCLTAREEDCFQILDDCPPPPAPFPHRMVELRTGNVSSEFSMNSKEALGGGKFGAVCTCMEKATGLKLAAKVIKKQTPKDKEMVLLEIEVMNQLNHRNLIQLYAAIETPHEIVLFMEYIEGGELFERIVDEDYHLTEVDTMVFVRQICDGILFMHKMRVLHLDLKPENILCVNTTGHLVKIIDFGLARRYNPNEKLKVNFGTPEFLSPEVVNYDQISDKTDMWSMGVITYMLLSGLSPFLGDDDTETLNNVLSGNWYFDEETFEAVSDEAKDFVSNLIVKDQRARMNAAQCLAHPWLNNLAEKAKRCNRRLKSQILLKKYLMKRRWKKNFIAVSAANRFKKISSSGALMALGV", "assay": "Inhibition of MYLK2(h) at 10.0 µM in the Eurofins Kinase panel", "conditions": "Compound concentration 10.0 uM"}, "[20]": {"molecular_target": "Cyclin-Y/Cyclin-dependent kinase 16 (Homo sapiens) (UniProt Q00536+Q8ND76)", "assay": "Inhibition of CDK16/cyclinY(h) at 10.0 µM in the Eurofins Kinase panel", "format": "protein-complex assay", "conditions": "Compound concentration 10.0 uM"}, "[21]": {"molecular_target": "Dual specificity tyrosine-phosphorylation-regulated kinase 1A (Homo sapiens) (UniProt Q13627)", "assay": "Inhibition of DYRK1A(h) at 10.0 µM in the Eurofins Kinase panel", "conditions": "Compound concentration 10.0 uM"}, "[22]": {"molecular_target": "Serine/threonine-protein kinase D2 (Homo sapiens) (UniProt Q9BZL6)", "assay": "Inhibition of PKD2(h) at 10.0 µM in the Eurofins Kinase panel", "conditions": "Compound concentration 10.0 uM"}}, "data": [{"smiles": "O=c1n(Cc2cncn2-c2cccc(Cl)c2)nc(-c2ccc(Cl)cc2)n1C[C@H](O)C(F)(F)F", "values": [{"measurement": "inhibition", "setting": "[1]", "result": -4.33, "unit": "%"}, {"measurement": "inhibition", "setting": "[2]", "result": 2, "unit": "%"}, {"measurement": "inhibition", "setting": "[3]", "result": 0.27, "unit": "%"}, {"measurement": "inhibition", "setting": "[4]", "result": -6.92, "unit": "%"}, {"measurement": "inhibition", "setting": "[5]; Compound concentration 10.0 uM", "result": 7, "unit": "%"}, {"measurement": "inhibition", "setting": "[6]", "result": 5.32, "unit": "%"}, {"measurement": "inhibition", "setting": "[7]", "result": -9.34, "unit": "%"}, {"measurement": "inhibition", "setting": "[8]", "result": 2.56, "unit": "%"}, {"measurement": "inhibition", "setting": "[9]", "result": -0.36, "unit": "%"}, {"measurement": "inhibition", "setting": "[10]", "result": 6.15, "unit": "%"}, {"measurement": "inhibition", "setting": "[11]", "result": -0.99, "unit": "%"}, {"measurement": "inhibition", "setting": "[12]", "result": 13.2, "unit": "%"}, {"measurement": "inhibition", "setting": "[13]", "result": 6.3, "unit": "%"}, {"measurement": "inhibition", "setting": "[14]", "result": -3.35, "unit": "%"}, {"measurement": "inhibition", "setting": "[15]", "result": -7.8, "unit": "%"}, {"measurement": "inhibition", "setting": "[16]", "result": 0.71, "unit": "%"}, {"measurement": "inhibition", "setting": "[17]", "result": 6.76, "unit": "%"}, {"measurement": "inhibition", "setting": "[18]", "result": 0.97, "unit": "%"}, {"measurement": "inhibition", "setting": "[19]", "result": 3.49, "unit": "%"}, {"measurement": "inhibition", "setting": "[20]", "result": 4.57, "unit": "%"}, {"measurement": "inhibition", "setting": "[21]", "result": 3.54, "unit": "%"}, {"measurement": "inhibition", "setting": "[22]", "result": 1.71, "unit": "%"}]}, {"smiles": "C[C@H](O)c1nc(Cn2nc(-c3ccc(Cl)cc3)n(C[C@H](O)C(F)(F)F)c2=O)nn1-c1cccc(Cl)c1", "note": "[PECAVAPTAN]", "values": [{"measurement": "inhibition", "setting": "[1]", "result": -6.92, "unit": "%"}, {"measurement": "inhibition", "setting": "[2]", "result": 4, "unit": "%"}, {"measurement": "inhibition", "setting": "[3]", "result": -0.62, "unit": "%"}, {"measurement": "inhibition", "setting": "[4]", "result": -7.82, "unit": "%"}, {"measurement": "inhibition", "setting": "[5]; Compound concentration 0.001 uM", "result": 6, "unit": "%"}, {"measurement": "inhibition", "setting": "[5]; Compound concentration 0.01 uM", "result": -6, "unit": "%"}, {"measurement": "inhibition", "setting": "[5]; Compound concentration 0.1 uM", "result": -5, "unit": "%"}, {"measurement": "inhibition", "setting": "[5]; Compound concentration 1.0 uM", "result": 5, "unit": "%"}, {"measurement": "inhibition", "setting": "[5]; Compound concentration 10.0 uM", "result": 43, "unit": "%"}, {"measurement": "inhibition", "setting": "[6]", "result": 4.93, "unit": "%"}, {"measurement": "inhibition", "setting": "[7]", "result": 4.65, "unit": "%"}, {"measurement": "inhibition", "setting": "[8]", "result": 2.7, "unit": "%"}, {"measurement": "inhibition", "setting": "[9]", "result": -4.97, "unit": "%"}, {"measurement": "inhibition", "setting": "[10]", "result": 1.42, "unit": "%"}, {"measurement": "inhibition", "setting": "[11]", "result": -1.01, "unit": "%"}, {"measurement": "inhibition", "setting": "[12]", "result": 0.72, "unit": "%"}, {"measurement": "inhibition", "setting": "[13]", "result": 10.9, "unit": "%"}, {"measurement": "inhibition", "setting": "[14]", "result": 8.06, "unit": "%"}, {"measurement": "inhibition", "setting": "[15]", "result": -3.72, "unit": "%"}, {"measurement": "inhibition", "setting": "[16]", "result": -0.43, "unit": "%"}, {"measurement": "inhibition", "setting": "[17]", "result": 0.27, "unit": "%"}, {"measurement": "inhibition", "setting": "[18]", "result": -2.61, "unit": "%"}, {"measurement": "inhibition", "setting": "[19]", "result": 3.01, "unit": "%"}, {"measurement": "inhibition", "setting": "[20]", "result": -5.42, "unit": "%"}, {"measurement": "inhibition", "setting": "[21]", "result": 8.95, "unit": "%"}, {"measurement": "inhibition", "setting": "[22]", "result": 1.59, "unit": "%"}]}]}
